This is an account of results in US20250129095A1, “ANNULATED 2-AMINO-3-CYANO THIOPHENES AND DERIVATIVES FOR THE TREATMENT OF CANCER” (Boehringer Ingelheim Int'l GmbH Corp., priority 2021, published 2025).

One experiment concerns NCI-H2122 cells. In words: NCI-H2122 CTG proliferation assay (120 h) (NSCLC, G12C). The format is cell-based. The settings on record: Homo sapiens. As for the experimental part:
The CTG assay is designed to measure quantitatively the proliferation of NCI-H2122 cells (ATCC CRL-5985), using the CellTiter Glow Assay Kit (Promega G7571). Cells are grown in RPMI medium (ATCC) supplemented with Fetal Calf Serum (Life Technologies, Gibco BRL, Cat. No. 10270-106). On “day 0” 200 NCI-H2122 cells are seeded in 60 μL RPMI ATCC+10% FCS+Penstrep in a black 384-well plate, flat and clear bottom (Greiner, PNr. 781091). Cells are then incubated in the plates at 37° C. in a CO2 incubator overnight. On day 1, compounds (10 mM stock in DMSO) are added with the ECHO acoustic liquid handler system (Beckman Coulter), including DMSO controls. Plates are incubated for 120 h, and cell viability is measured using CellTiter-Glo luminescent cell viability reagent (Promega product code G7570). Viability (stated as percent of control) is defined as relative luminescence units RLU of each well divided by the RLU of cells in DMSO controls. […] values are determined from viability measurements by non-linear regression using a four parameter model. • AsPC-1 CTG proliieradon assay (120 h) (pancreatic cancer, G12D)

For another experiment, the target named is T1, KRAS (G12V)::SOS1 (Homo sapiens, UniProt P01116, C118S/G12V).
T1 construct: KRAS (G12V) 1-169, N-terminal 6His-tag for purification, cleaved off; 6His-tag (N, cleaved yes); TEV cleavage site; made in house
In words: KRAS::SOS1 AlphaScreen binding assay, KRAS G12V. From the text: (§1) This assay can be used to examine the potency with which compounds according to the invention binding to (mutated) KRAS inhibit the protein-protein interaction between SOS1 and (mutated) KRAS e.g., KRAS WT, KRAS G12C, KRAS G12D, KRAS G12V, KRAS G13D. […] Low IC50 values in this assay setting are indicative of strong inhibition of protein-protein interaction between SOS1 and KRAS:
(§2) These assays measure the inhibitory effect of compounds on KRAS mutant protein-protein interactions using the Alpha Screen technology by Perkin Elmer
(§3) The following (mutant) enzyme forms of KRAS and interacting proteins are used in these assays at the given concentrations: • KRAS (G12D) 1-169, N-terminal 6His-tag, C-terminal avi-tag (Xtal BioStructures, Inc.); final assay concentration 10 nM and SOS1 564-1049, N-terminal 229 GST-tag, TEV cleavage site (Viva Biotech Ltd); final assay concentration 5 nM; • KRAS (G12C) 1-169, N-terminal 6His-tag for purification, cleaved off, C-terminal avi-tag, biotinylated, mutations: C51S, C80L, C118S (in house); final assay concentration 7.5 nM and SOS1 564-1049, N-terminal 229 GST-tag, TEV cleavage site (Viva Biotech Ltd); final assay concentration 5 nM; • KRAS (G12V) 1-169, N-terminal 6His-tag for purification, cleaved off, C-terminal avi-tag, biotinylated, TEV cleavage site, mutation: C118S, GDP loaded (in house); final assay concentration 10 nM and SOS1 564-1049, N-terminal 229 GST-tag, TEV cleavage site (Viva Biotech Ltd); final assay concentration 10 nM; • KRAS (G13D) 1-169, N-terminal 6His-tag for purification, cleaved off, C-terminal avi-tag, biotinylated, TEV cleavage site, mutation: C118S, GDP loaded (in house); final assay concentration 10 nM and SOS1 564-1049, N-terminal 229 GST-tag, TEV cleavage site (Viva Biotech Ltd); final assay concentration 10 nM; • KRAS (WT) 1-169, N-terminal 6His-tag for purification, cleaved off, C-terminal avi-tag, biotinylated, TEV cleavage site, mutation: C118S, GDP loaded (in house); final assay concentration 10 nM and SOS1 564-1049, N-terminal 229 GST-tag, TEV cleavage site (Viva Biotech Ltd); final assay concentration 10 nM.
(§4) Test compounds dissolved in DMSO are dispensed onto assay plates (Proxiplate 384 PLUS, white, PerkinElmer; 6008289) using an Access Labcyte Workstation with the Labcyte Echo 55×. For the chosen highest assay concentration of 100 μM, 150 nL of compound solution are transferred from a 10 mM DMSO compound stock solution. A series of eleven fivefold dilutions per compound are transferred to the assay plate, compound dilutions are tested in duplicates. DMSO are added as backfill to a total volume of 150 nL.
(§5) The assays run on a fully automated robotic system in a darkened room below 100 Lux. To 150 nl of compound dilution 10 μl of a mix including KRAS mutant protein, SOS1 (final assay concentrations see above) and GDP nucleotide (Sigma G7127; final assay concentration 10 μM) in assay buffer (1×PBS, 0.1% BSA, 0.05% Tween 20) are added into columns 1-24.
(§6) After 30 minutes incubation time 5 μl of Alpha Screen bead mix in assay buffer are added into columns 1-23. Bead mix consists of AlphaLISA Glutathione Acceptor Beads (PerkinElmer, Cat No AL109) and AlphaScreen Streptavidin Donor Beads (PerkinElmer Cat No 6760002) in assay buffer at a final assay concentration of 10 μg/ml each.
(§7) Plates are kept at room temperature in a darkened incubator. After an additional 60 minutes incubation time the signal is measured in a PerkinElmer Envision HTS Multilabel Reader using the AlphaScreen specs from PerkinElmer.
(§8) Each plate contains up to 16 wells of a negative control depending on the dilution procedure (platewise or serial) (DMSO instead of test compound; with KRAS mutant::SOS1 GDP mix and bead mix; column 23) and 16wells of a positive control (DMSO instead of test compound; with KRAS mutant::SOS1 GDP mix w/o bead mix; column 24).
(§9) As internal control known inhibitors of KRAS mutant::SOS1 interaction can be measured on each compound plate. […]
For orientation: Alpha assays give light when donor and acceptor beads are brought close together.

A further experiment relates to NCI-H358 cells. In words: NCI-H358 CTG proliferation assay (120 h) (NSCLC, G12C). The format is cell-based. The settings on record: Homo sapiens. On the procedure:
Additional Proliferation Assays with Mutant Cancer Cell Lines • NCI-H358 CTG proliferation assay (120 h) (NSCLC, G12C)
NCI-H358 cells (ATCC No. CRL-5807) are dispensed into black 384-well plates, flat and clear bottom (Greiner, PNr. 781091) at a density of 200 cells per well in 60 μl RPMI-1640 ATCC-Formulation (Gibco #A10491)+10% FCS (fetal calf serum). […] For the TO time point measurement, untreated cells are analyzed at the time of compound addition. Plates are incubated for 120 h, and cell viability is measured using CellTiter-Glo luminescent cell viability reagent (Promega product code G7570). Viability (stated as percent of control) is defined as relative luminescence units RLU of each well divided by the RLU of cells in DMSO controls.

The target in a further experiment is T2, KRAS (WT)::SOS1 (Homo sapiens, UniProt P01116, C118S).
T2 construct: KRAS (WT) 1-169, N-terminal 6His-tag for purification, cleaved off; 6His-tag (N, cleaved yes); TEV cleavage site; made in house
The experiment can be described thus: KRAS::SOS1 AlphaScreen binding assay, KRAS WT.
Source text: as §1, §2, §3, §4, §5, §6, §7, §8, §9

T1 sequence (P01116 1-169 isoform P01116-2 G12V/C118S): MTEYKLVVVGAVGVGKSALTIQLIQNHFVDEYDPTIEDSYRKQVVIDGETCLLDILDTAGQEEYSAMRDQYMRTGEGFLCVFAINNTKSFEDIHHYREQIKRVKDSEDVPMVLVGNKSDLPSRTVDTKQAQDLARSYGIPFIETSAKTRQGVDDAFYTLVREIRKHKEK
T2 sequence (P01116 1-169 isoform P01116-2 C118S): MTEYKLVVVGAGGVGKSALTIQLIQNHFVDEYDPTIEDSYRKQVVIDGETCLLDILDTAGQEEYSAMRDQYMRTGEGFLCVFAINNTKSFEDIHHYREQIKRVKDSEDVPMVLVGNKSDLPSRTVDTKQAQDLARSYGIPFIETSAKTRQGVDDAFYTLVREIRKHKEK

For orientation: IC50 means the concentration needed to halve the response being measured. A higher IC50 goes with weaker potency in that assay. Take `C[C@H](Oc1cc(O[C@H]2CNC(C)(C)C2)nc(-c2noc3c2CCC[C@@]32CCCc3sc(N)c(C#N)c32)n1)[C@@H]1CCCN1C` (single isomer, unassigned) [II-8]: the 50% inhibitory concentration (IC50) in the experiment on NCI-H2122 cells stood at 1340 nM; on KRAS (G12V)::SOS1, 10 nM; in the experiment on NCI-H358 cells, 1180 nM.
As to `C[C@H](Oc1cc(Oc2nccs2)nc(-c2onc3c2CCC[C@@]32CCCc3sc(N)c(C#N)c32)n1)[C@@H]1CCCN1C` [Example I-1], the figures for the IC50 in the experiment on NCI-H2122 cells, at KRAS (WT)::SOS1 and at KRAS (G12V)::SOS1 were 1470 nM, 4 nM and 2 nM, respectively.
On the same counts, the results for `C[C@H](Oc1cc(Oc2cccnc2)nc(-c2onc3c2CCC[C@@]32CCCc3sc(N)c(C#N)c32)n1)[C@@H]1CCCN1C` [Example I-2] are 740 nM, 4 nM and 1 nM.
Take `C[C@H](Oc1cc(Oc2cncnc2)nc(-c2onc3c2CCC[C@@]32CCCc3sc(N)c(C#N)c32)n1)[C@@H]1CCCN1C` [Example I-3]: the IC50 with NCI-H2122 cells stood at 2280 nM; on KRAS (WT)::SOS1, 2 nM.
As for `C[C@H](Oc1cc(N[C@H]2CCOC2)nc(-c2onc3c2CCC[C@@]32CCCc3sc(N)c(C#N)c32)n1)[C@@H]1CCCN1C` [Example I-4], the figures for the half-maximal inhibitory concentration (IC50) in the experiment with NCI-H2122 cells and with NCI-H358 cells were 2390 nM and 2280 nM, respectively.
On the same counts, the results for `C[C@H](Oc1cc(Nc2ccccn2)nc(-c2onc3c2CCC[C@@]32CCCc3sc(N)c(C#N)c32)n1)[C@@H]1CCCN1C` [Example I-6] are 1120 nM and 1360 nM.
The like results for `C[C@H](Oc1cc(Sc2ncccn2)nc(-c2onc3c2CCC[C@@]32CCCc3sc(N)c(C#N)c32)n1)[C@@H]1CCCN1C` [Example I-7] were, in that order, 3610 nM and 5620 nM.
Take `C[C@H](Oc1cc(OCC2(N(C)C)COC2)nc(-c2onc3c2CCC[C@@]32CCCc3sc(N)c(C#N)c32)n1)[C@@H]1CCCN1C` [Example I-8]: the 50% inhibitory concentration (IC50) was determined as 1260 nM in the experiment with NCI-H2122 cells, 3 nM on KRAS (G12V)::SOS1 and 76 nM in the experiment with NCI-H358 cells.
Take `C[C@H](Oc1cc(Oc2cncnc2)nc(-c2noc3c2CCC[C@@]32CCCc3sc(N)c(C#N)c32)n1)[C@@H]1CCCN1C` [II-1]: the IC50 with NCI-H2122 cells amounted to 715 nM; at KRAS (WT)::SOS1, 3 nM; with NCI-H358 cells it was 178 nM.
Regarding `C[C@H](Oc1cc(Oc2nccs2)nc(-c2noc3c2CCC[C@@]32CCCc3sc(N)c(C#N)c32)n1)[C@@H]1CCCN1C` [II-2], the IC50 in the experiment on NCI-H2122 cells came out at 77 nM; in the experiment with NCI-H358 cells it was 115 nM.
The like results for `C[C@H](Oc1cc(Oc2ccon2)nc(-c2noc3c2CCC[C@@]32CCCc3sc(N)c(C#N)c32)n1)[C@@H]1CCCN1C` [II-3] were, in that order, 275 nM and 275 nM.
The like results for `C[C@H](Oc1cc(O[C@H]2CCOC2)nc(-c2noc3c2CCC[C@@]32CCCc3sc(N)c(C#N)c32)n1)[C@@H]1CCCN1C` [II-4] were, in that order, 817 nM and 193 nM.
The like results for `COCCOc1cc(O[C@@H](C)[C@@H]2CCCN2C)nc(-c2noc3c2CCC[C@@]32CCCc3sc(N)c(C#N)c32)n1` [II-5] were, in that order, 861 nM and 339 nM.
With `C[C@H](Oc1cc(OCCO)nc(-c2noc3c2CCC[C@@]32CCCc3sc(N)c(C#N)c32)n1)[C@@H]1CCCN1C` [II-6], the IC50 was 1650 nM in the experiment with NCI-H2122 cells and 165 nM in the experiment with NCI-H358 cells.
Regarding `C[C@H](Oc1cc(Oc2cnccn2)nc(-c2noc3c2CCC[C@@]32CCCc3sc(N)c(C#N)c32)n1)[C@@H]1CCCN1C` [II-7], the IC50 in the experiment with NCI-H2122 cells stood at 997 nM.
On the same count and under the same terms, to `C[C@H](Oc1cc(N(C)C)nc(-c2noc3c2CCC[C@@]32CCCc3sc(N)c(C#N)c32)n1)[C@@H]1CCCN1C` [II-10] belongs 2420 nM.
Still for that read-out and setting: as for `C[C@H](Oc1cc(NCC2COC2)nc(-c2noc3c2CCC[C@@]32CCCc3sc(N)c(C#N)c32)n1)[C@@H]1CCCN1C` [II-11], the figure is 2130 nM.
For `C[C@H](Oc1cc(Nc2nccs2)nc(-c2noc3c2CCC[C@@]32CCCc3sc(N)c(C#N)c32)n1)[C@@H]1CCCN1C` [II-12], the IC50 with NCI-H2122 cells was 1740 nM; in the experiment on NCI-H358 cells, 819 nM.
On the same counts, the results for `C[C@H](Oc1cc(Nc2ccncn2)nc(-c2noc3c2CCC[C@@]32CCCc3sc(N)c(C#N)c32)n1)[C@@H]1CCCN1C` [II-15] are 847 nM and 123 nM.
As for `C[C@H](Oc1cc(Nc2ccccn2)nc(-c2noc3c2CCC[C@@]32CCCc3sc(N)c(C#N)c32)n1)[C@@H]1CCCN1C` [II-16], in the experiment on NCI-H358 cells, the half-inhibitory concentration (IC50) stood at 440 nM.
Take `C[C@H](Oc1cc(Nc2cccnn2)nc(-c2noc3c2CCC[C@@]32CCCc3sc(N)c(C#N)c32)n1)[C@@H]1CCCN1C` [II-18]: the results for the half-maximal inhibitory concentration (IC50) in the experiment on NCI-H2122 cells and in the experiment on NCI-H358 cells were 822 nM and 430 nM, respectively.
The like results for `C[C@H](Oc1cc(O[C@H]2CN(C)C(C)(C)C2)nc(-c2noc3c2CCC[C@@]32CCCc3sc(N)c(C#N)c32)n1)[C@@H]1CCCN1C` [II-19] were, in that order, 1460 nM and 3270 nM.
Take `C[C@H](Oc1cc(N(C)CCN(C)C)nc(-c2noc3c2CCC[C@@]32CCCc3sc(N)c(C#N)c32)n1)[C@@H]1CCCN1C` [II-20]: in the experiment on NCI-H2122 cells, it took 4700 nM to reach half-maximal inhibition (IC50).
Same read-out and setting: to `C[C@H](Oc1cc(OCC2(N(C)C)CC2)nc(-c2noc3c2CCC[C@@]32CCCc3sc(N)c(C#N)c32)n1)[C@@H]1CCCN1C` [II-21] belongs 2200 nM.
For `C[C@H]1CN(C)CCCN1c1cc(O[C@@H]2CNC2(C)C)nc(-c2noc3c2CCC[C@@]32CCCc3sc(N)c(C#N)c32)n1` [II-28], the IC50 in the experiment with NCI-H2122 cells came to 9740 nM; on KRAS (WT)::SOS1, 10 nM; with NCI-H358 cells, 952 nM.
